In series [1] the test system is tumor cells. The experiment in a line: Selective uptake by flow cytometry, tumor cells versus normal cells. Format: cell-based. Conditions: among bpy-Rho and M-Rho. As for the experimental part: (§1) Tumor cells (MCF-7/A 549/HepG2/4T1) and normal cells (MCF-10A/293T/L02/NIH-3T3) (1×10^4 cells) was cultured in six-well plate for 12 h. and then Cells were changed with a medium containing 5 μM complexes (rho-bpy, rho-bpy-Pt-ph, rho-bpy-Rh-ppy, rho-bpy-Re and rho-bpy-Ir-ppy). Cells were washed three times with PBS after 2 h of incubation, Then the cells were harvested, and the fluorescence intensity of complexes were recorded by flow cytometer.

Series [2] has as its system A549. The experiment in a line: Selective uptake by flow cytometry. The format is cell-based, human. As to conditions: A549, 5 μM, 2 h incubation. As for the experimental part: as §1
In series [3] the test system is MCF-7. As to the kind of experiment: Selective uptake by flow cytometry. The format is cell-based, human. Conditions: MCF-7, 5 μM, 2 h incubation. As for the experimental part: as §1
Series [4] in a line: Steady-state emission spectra and absolute luminescence quantum yield. Format: physicochemical. The protocol: (§2) The UV-vis absorption spectra were taken on Cary 60 UV-vis spectrophotometer. Steady-state emission spectra at room temperature were recorded on an Edinburgh Instruments FLS980 fluorescence spectrometer. Quartz cuvettes (path length=1 cm) were used in all spectrophotometric and fluorometric measurements. NMR spectra were recorded on a Bruker AVANCE 400 (^1H NMR for 400 MHz and ^13C NMR for 100 MHz) Fourier transform NMR spectrometer with chemical shifts reported relative to tetramethylsilane, (CH3)4Si. High-resolution MS spectra were performed on an Orbitrap Fusion Tribrid mass spectrometer. Elemental analyses of the newly synthesized complexes were preformed on a Elementar Vario EL Cube elemental analyzer at Sun Yat-sen University. The nanosecond time-resolved transient-difference absorption spectra were detected by using Edinburgh LP920 instruments (Edinburgh Instruments, U.K.). All solutions for transient absorption studies were degassed on a high-vacuum line in a two-compartment cell consisting of a 10-ml Pyrex bulb and a 1-cm or 4-mm path length quartz cuvette and sealed from the atmosphere by a Bibby Rotaflo HP6 Teflon stopper. The solutions were rigorously degassed with at least four successive freeze-pump-thaw cycles. Emission lifetime measurements were performed using a conventional laser system. The excitation source used was a 355-nm output (third harmonic) of a Spectra-Physics Quanta-Ray Q-switched GCR-150-10 pulsed Nd-YAG laser. Luminescence decay signals were detected by a Hamamatsu R928 PMT and recorded on a Tektronix Model TDS-620A (500 MHz, 2 GS/s) digital oscilloscope and analyzed using a program for exponential fits. Absolute quantum yields were measured by HAMAMATSU-C11347.

A short description of series [5]: Nanosecond transient absorption difference spectroscopy. The format is physicochemical. As to conditions: measured by transient absorption in CH3CN.
From the text: Nanosecond transient absorption (TA) difference spectroscopy was employed to investigate the triplet excited states of M-Rho (FIG. 2c and FIGS. 16-19). Upon pulsed laser excitation at 355 nm, an intense bleaching signal at 575 nm with lifetime in microsecond range is observed, which is ascribed to the depletion of ground state rhodamine absorption. Such a long-lived excited state should be localized on the rhodamine unit, and is assigned as the ^3IL excited state of rhodamine in M-Rho. The absorption signal at 610-800 nm is due to the rhodamine ^3IL excited state absorption. In contrast, no signal from this triplet excited state is detected in bpy-Rho because of the lack of efficient ISC. On the other hand, only the transient absorption signals originating from the corresponding ^3MLCT excited states are observed in the rhodamine-free analogues (FIGS. 20-21).
as §2

The nature of series [6]: UV/Vis absorption spectra. Format: physicochemical. The protocol:
as §2

Series [7] can be described thus: Singlet oxygen quantum yield. The format is physicochemical. The text has this:
The long-lived triplet excited state of rhodamine is anticipated to interact with molecular oxygen (^3O2) to form singlet oxygen (^1O2), which is useful for PDT applications. The ability of M-Rho to produce ^1O2 has been evaluated spectroscopically by the observation of ^1O2 emission at about 1270 nm (inset of FIG. 2b). Remarkable ^1O2 emission is observed in Ir-Rho, Re-Rho and Pt-Rho but not for Rh-Rho and bpy-Rho. By monitoring the diminution of the characteristic absorption of the ^1O2 scavenger 1,3-diphenylisobenzofuran (DPBF) at 410 nm, ^1O2 generation is also confirmed and the corresponding quantum yields (ϕΔ) for the complexes are determined (Table 1). […] The rate and quantum yield of ^1O2 generation are found to vary with different metal systems.
Singlet oxygen quantum yield was determined by comparing the ^1O2 emission intensity of Rose Bengal and M-Rho.

Series [8] can be described thus: Singlet oxygen emission at about 1270 nm. Format: physicochemical. Conditions: in CH3CN. As for the experimental part:
Singlet oxygen emission was detected by using FLS-980 spectrofluorometer. All of the compounds were dissolved in CH3CN. The absorbance at 532 nm was adjusted to be around 1.7 for all the compounds. Upon measurements, an 850 nm long-pass filter was inserted in between the sample and the detector to avoid many high-order diffraction from the visible emission.

The nature of series [9]: Octanol-water partition coefficient.
From the text: Octanol-water partition coefficients (log Po/w)^[27] of bpy-Rho and M-Rho have been measured in order to study their lipophilic/hydrophilic characters. The higher is the log Po/w value associated with the dye, the higher is its lipophilic character.
Series [10] concerns MCF-7 cells. As to the kind of experiment: Mitochondrial membrane potential, flow-cytometry-based JC-1 assay. Format: cell-based, human. As to conditions: 5 uM, 11 W lamp 30 min. As for the experimental part: Mitochondrial depolarization was assessed by flow cytometry after incubation with JC-1 Molecular Probes (Thermo Fisher Scientific, USA). Briefly, The MCF-7 cells were seeded in six-well plate, incubated for 24 h in 5% CO2 at 37° C. Next, added to compounds (bpy-Rho and M-Rho) in medium make the final concentrations of 5 uM compounds. After irradiation treatment (11 W lamp 30 min). The cells were resuspended in warm PBS, and incubated with JC-1 (4 μg/ml) for 30 min at 37° C. and 5% CO2. Thereafter the cells were centrifuged, resuspended in 600 μL of PBS, and analyzed immediately on a flow cytometer (Becton Dickinson, San Jose, Calif., USA). Untreated cells were used as negative controls.

Turning to `CCN(CC)c1ccc2c(-c3ccnc(-c4cc(C)ccn4)c3)c3ccc(=[N+](CC)CC)cc-3oc2c1.F[P-](F)(F)(F)(F)F.F[P-](F)(F)(F)(F)F.c1ccc(-c2cccc[c]2[Ir+][c]2ccccc2-c2ccccn2)nc1` [Ir-Rho], the “uptake efficiency and affinity to tumor cells, ranking” value in series [1] was “highest uptake efficiency and affinity”. In addition, the “contrast index (CI)” value in series [2] and in series [3] was “higher than 2.5” throughout. In addition, the λem in series [4] (Conc. = 1.0 × 10^−6M in MeOH) was 629 nm. For the same compound, the Φlum in series [4] (absolute luminescence quantum yield measured by HAMAMATSU-C11347) was 0.014. The “TT (triplet-state lifetimes)” value in [5] came out at 0.82 μs. Further, the λabs in series [6] (absorption maximum, in CH3CN) was 575 nm. The “ε × 10^4” value in series [6] (molar extinction coefficient at the absorption maxima, values × 10^4) is 8.75 M^−1 cm^−1. Also, the “rate and quantum yield of 1O2 generation, ranking” value in [7] (among M-Rho) is reported as “highest QY”. Further, in series [7] (relative to rose bengal (ΦΔ = 0.76)), the “ΦΔ (singlet oxygen quantum yield)” value is reported as 0.62. Besides, in series [8], the “1O2 emission at about 1270 nm” value is “Remarkable”. Also, in series [9], the “log Po/w” value is recorded as −0.39. Besides, the “ratio of JC-1 aggregates/JC-1 monomers” value in series [10] was determined as 1.79.

These data come from patent publication US11214586B2, “Rhodamine triplet state complex and preparation and photodynamic therapy (PDT) study thereof” (SOUTHERN UNIVERSITY OF SCIENCE AND TECHNOLOGY, priority 2018, dated 2022).
